{
  "source": "patent US20240415123A1",
  "about": "“METHODS AND COMPOSITIONS FOR ICAFOLIN HERBICIDE TOLERANCE” (Monsanto Technology LLC, priority 2023, published 2024)",
  "type_in_all_cases": "in vivo",
  "key": {"[1]": {"system": "transgenic soybean plants expressing CYP14", "experiment": "Icafolin herbicide injury rating, greenhouse spray, CYP14 soybean", "description": "(§1) The codon-optimized polynucleotide sequences were placed into plant transformation cassettes with each CYP coding sequence operably-linked to a constitutive expression element comprising the promoter, leader, and intron sequence of Arabidopsis thaliana Ubiquitin 3 (SEQ ID NO:14) and a Medicago truncatula photosystem II terminator (SEQ ID NO:15). Four plant transformation vectors were created, each comprising one of the CYP gene expression cassettes and an aadA selectable marker expression cassette, conferring resistance to the antibiotics spectinomycin and streptomycin. Soybean cultivar AG3555 seed-derived embryo explants were transformed with the vectors by Agrobacterium-mediated transformation using known methods in the art, and transformed plantlets were selected based on growth in the presence of spectinomycin. Plantlets comprising single copy events were grown in the greenhouse to produce R1 seeds. R1 plants were subsequently selected for homozygous CYP-positive plants, either by molecular analysis of young leaf tissue or by seed chipping prior to planting. These selected plants were then screened for tolerance to icafolin herbicide.\n(§2) Herbicide tolerance screens were performed by selecting R1 plants at roughly the V2-V3 developmental stage and applying icafolin herbicide with a track sprayer under standard greenhouse conditions. Two independent transgenic events per transgene were screened. The herbicide was formulated with 1% v/v methylated seed oil (MSO) and 2.5% v/v ammonium sulfate (AMS) and sprayed with a XR nozzle at 15 gallons per […] (GPA) to mimic field conditions. The icafolin used in this Example and in the experiments described in Examples 2-4 was a mixture of the methyl ester forms of the 2R, 4R and 2S, 4S isomers. The icafolin formulation was sprayed at two rates: 5 g active ingredient (ai)/hectare (ha) and 25 g ai/ha. The herbicide treated soybean plants were returned to the greenhouse following spray application and allowed to grow under standard conditions. Plants were rated for herbicide injury at approximately 14 and 21 days after treatment (DAT). Untreated transgenic plants and control (wild-type) plants were used for phenotypic comparison. The herbicide injury rating accounts for plant malformation, stunting, chlorosis, necrosis, and plant death relative to the untreated control plants. An injury rating of approximately 90% or above indicates nearly complete plant death. An injury rating of less than 30% indicates partial tolerance, and an injury rating of less than 20% indicates good tolerance. Injury ratings were collected and analyzed, and photographs of representative plants were taken."}, "[2]": {"system": "transgenic soybean plants expressing CYP13", "experiment": "Icafolin herbicide injury rating, greenhouse spray, CYP13 soybean", "settings": "for Percent Injury 15 DAT / Percent injury 21 DAT: Experiment 1", "description": "as §1, §2"}, "[3]": {"system": "transgenic soybean plants expressing CYP34", "experiment": "Icafolin herbicide injury rating, greenhouse spray, CYP34 soybean", "settings": "Table 10", "description": "The codon-optimized gene was placed into plant transformation cassette with the CYP34 coding sequence operably linked to a constitutive expression element comprising the promoter, leader, and intron of Arabidopsis thaliana Ubiquitin 3 (SEQ ID NO:14) and a Medicago truncatula photosystem II terminator (SEQ ID NO:15). A plant transformation vector was created, comprising the CYP34 gene cassette and an aadA selectable marker expression cassette, which confers resistance to the antibiotics spectinomycin and streptomycin. Soybean cultivar AG3555 seed-derived embryo explants were transformed with the vector described above by Agrobacterium-mediated transformation using known methods in the art, and positive-transformed plantlets were selected based on growth in the presence of spectinomycin. Plantlets comprising single copy events were grown in the greenhouse to produce R1 seeds. R1 plants were subsequently selected for the homozygous CYP positive plants, either by molecular analysis of young leaf tissue or by seed chipping prior to planting. These selected plants were then screened for tolerance to the icafolin herbicide.\nHerbicide tolerance screening was performed by selecting R1 plants at roughly the V2-V3 developmental stage and applying the icafolin herbicide in a track sprayer under standard greenhouse conditions. Two independent transgenic events per transgene were selected for screening. The herbicide was formulated with 1% v/v methylated seed oil (MSO) and 2.5% v/v ammonium sulfate (AMS) and sprayed with a XR nozzle at 15 gallons per […] (GPA) to mimic field conditions. The icafolin formulation was sprayed at two rates: 5 g active ingredient (ai)/hectare (ha) and 25 g ai/ha. The treated soybean plants were returned to the greenhouse following spray application and allowed to grow under standard conditions. The plants were rated for herbicide injury at approximately 13 and 21 days after treatment (DAT). Untreated transgenic plants and control (wild-type) plants were used for phenotypic comparison. The herbicide injury rating accounts for plant malformation, stunting, chlorosis, necrosis, and plant death relative to the untreated control plants. An injury rating of approximately 90% or above indicates nearly complete plant death. An injury rating of less than 30% indicates partial tolerance and an injury rating of less than 20% indicates good tolerance. Injury ratings were collected and analyzed, and photographs of representative plants were taken."}, "[4]": {"settings": "CYP14 Event 267, 5 g ai/ha icafolin, Experiment 2"}, "[5]": {"settings": "CYP14 Event 267, 5 g ai/ha icafolin, Experiment 1"}, "[6]": {"settings": "CYP14 Event 267, 25 g ai/ha icafolin, Experiment 2"}, "[7]": {"settings": "CYP14 Event 267, 25 g ai/ha icafolin, Experiment 1"}, "[8]": {"settings": "CYP14 Event 280, 5 g ai/ha icafolin, Experiment 2"}, "[9]": {"settings": "CYP14 Event 280, 25 g ai/ha icafolin, Experiment 2"}, "[10]": {"settings": "CYP14 Event 309, 5 g ai/ha icafolin, Experiment 2"}, "[11]": {"settings": "CYP14 Event 309, 5 g ai/ha icafolin, Experiment 1"}, "[12]": {"settings": "CYP14 Event 309, 25 g ai/ha icafolin, Experiment 2"}, "[13]": {"settings": "CYP14 Event 309, 25 g ai/ha icafolin, Experiment 1"}, "[14]": {"settings": "CYP14 Event 324, 5 g ai/ha icafolin, Experiment 2"}, "[15]": {"settings": "CYP14 Event 324, 25 g ai/ha icafolin, Experiment 2"}, "[16]": {"settings": "CYP13 Event 943, 5 g ai/ha icafolin"}, "[17]": {"settings": "CYP13 Event 943, 25 g ai/ha icafolin"}, "[18]": {"settings": "CYP13 Event 982, 5 g ai/ha icafolin"}, "[19]": {"settings": "CYP13 Event 982, 25 g ai/ha icafolin"}, "[20]": {"settings": "CYP34 Event 326, 5 g ai/ha icafolin"}, "[21]": {"settings": "CYP34 Event 326, 25 g ai/ha icafolin"}, "[22]": {"settings": "CYP34 Event 356, 5 g ai/ha icafolin"}, "[23]": {"settings": "CYP34 Event 356, 25 g ai/ha icafolin"}},
  "data": [
    {"molecule": "C=C[C@]1(C(=O)N[C@H]2CO[C@@H](C(=O)OC)C2)CC(c2cc(F)cc(F)c2)=NO1", "note": "(relative stereo) [icafolin, methyl(2R*,4R*)-4-[[(5S)-3-(3,5-difluorophenyl)-5-vinyl-4H-isoxazole-5-carbonyl]amino]tetrahydrofuran-2-carboxylate]", "values": [
      {"measurement": "Percent Injury 14 DAT", "setting": "[1]; [4]", "result": 32, "unit": "%"},
      {"measurement": "Percent Injury 15 DAT", "setting": "[1]; [5]", "result": 14, "unit": "%"},
      {"measurement": "Percent injury 21 DAT", "setting": "[1]; [5]", "result": 12, "unit": "%"},
      {"measurement": "Percent injury 21 DAT", "setting": "[1]; [4]", "result": 20, "unit": "%"},
      {"measurement": "Percent Injury 14 DAT", "setting": "[1]; [6]", "result": 79, "unit": "%"},
      {"measurement": "Percent Injury 15 DAT", "setting": "[1]; [7]", "result": 39, "unit": "%"},
      {"measurement": "Percent injury 21 DAT", "setting": "[1]; [7]", "result": 47, "unit": "%"},
      {"measurement": "Percent injury 21 DAT", "setting": "[1]; [6]", "result": 57, "unit": "%"},
      {"measurement": "Percent Injury 14 DAT", "setting": "[1]; [8]", "result": 19, "unit": "%"},
      {"measurement": "Percent injury 21 DAT", "setting": "[1]; [8]", "result": 12, "unit": "%"},
      {"measurement": "Percent Injury 14 DAT", "setting": "[1]; [9]", "result": 64, "unit": "%"},
      {"measurement": "Percent injury 21 DAT", "setting": "[1]; [9]", "result": 35, "unit": "%"},
      {"measurement": "Percent Injury 14 DAT", "setting": "[1]; [10]", "result": 37, "unit": "%"},
      {"measurement": "Percent Injury 15 DAT", "setting": "[1]; [11]", "result": 33, "unit": "%"},
      {"measurement": "Percent injury 21 DAT", "setting": "[1]; [11]", "result": 36, "unit": "%"},
      {"measurement": "Percent injury 21 DAT", "setting": "[1]; [10]", "result": 22, "unit": "%"},
      {"measurement": "Percent Injury 14 DAT", "setting": "[1]; [12]", "result": 90, "unit": "%"},
      {"measurement": "Percent Injury 15 DAT", "setting": "[1]; [13]", "result": 71, "unit": "%"},
      {"measurement": "Percent injury 21 DAT", "setting": "[1]; [13]", "result": 81, "unit": "%"},
      {"measurement": "Percent injury 21 DAT", "setting": "[1]; [12]", "result": 89, "unit": "%"},
      {"measurement": "Percent Injury 14 DAT", "setting": "[1]; [14]", "result": 48, "unit": "%"},
      {"measurement": "Percent injury 21 DAT", "setting": "[1]; [14]", "result": 30, "unit": "%"},
      {"measurement": "Percent Injury 14 DAT", "setting": "[1]; [15]", "result": 75, "unit": "%"},
      {"measurement": "Percent injury 21 DAT", "setting": "[1]; [15]", "result": 66, "unit": "%"},
      {"measurement": "Tolerance to icafolin", "setting": "[1]; in vivo", "result": "unexpected tolerance"},
      {"measurement": "injury", "setting": "[1]; in vivo", "result": "less than 30%"},
      {"measurement": "Percent Injury 15 DAT", "setting": "[2]; [16]", "result": 42, "unit": "%"},
      {"measurement": "Percent injury 21 DAT", "setting": "[2]; [16]", "result": 59, "unit": "%"},
      {"measurement": "Percent Injury 15 DAT", "setting": "[2]; [17]", "result": 74, "unit": "%"},
      {"measurement": "Percent injury 21 DAT", "setting": "[2]; [17]", "result": 80, "unit": "%"},
      {"measurement": "Percent Injury 15 DAT", "setting": "[2]; [18]", "result": 41, "unit": "%"},
      {"measurement": "Percent injury 21 DAT", "setting": "[2]; [18]", "result": 52, "unit": "%"},
      {"measurement": "Percent Injury 15 DAT", "setting": "[2]; [19]", "result": 69, "unit": "%"},
      {"measurement": "Percent injury 21 DAT", "setting": "[2]; [19]", "result": 80, "unit": "%"},
      {"measurement": "Tolerance to icafolin", "setting": "[2]; in vivo", "result": "did not show any noticeable tolerance"},
      {"measurement": "Percent Injury 13 DAT", "setting": "[3]; [20]", "result": 12.5, "unit": "%"},
      {"measurement": "Percent injury 21 DAT", "setting": "[3]; [20]", "result": 9.2, "unit": "%"},
      {"measurement": "Percent Injury 13 DAT", "setting": "[3]; [21]", "result": 48.3, "unit": "%"},
      {"measurement": "Percent injury 21 DAT", "setting": "[3]; [21]", "result": 36.7, "unit": "%"},
      {"measurement": "Percent Injury 13 DAT", "setting": "[3]; [22]", "result": 13.3, "unit": "%"},
      {"measurement": "Percent injury 21 DAT", "setting": "[3]; [22]", "result": 12.5, "unit": "%"},
      {"measurement": "Percent Injury 13 DAT", "setting": "[3]; [23]", "result": 35.8, "unit": "%"},
      {"measurement": "Percent injury 21 DAT", "setting": "[3]; [23]", "result": 30.8, "unit": "%"}
    ]}
  ]
}
